Test [1] deals with EGFR (human) (UniProt P00533). The note with it: HN5.
Test [2] addresses EGFR (human) (UniProt P00533). The note with it: siha.
Test [3] deals with EGFR (human) (UniProt P00533). The note with it: caski.
Test [4] concerns the target EGFR (human) (UniProt P00533). Conditions: hn5.
Test [5] has as its target EGFR (human) (UniProt P00533). The note with it: a431.

Values joined by “and” are separate entries in the source; they are usually repeats but may differ in a detail not shown here. Identical values can stand only once.

Sequence of EGFR (human) (P00533 whole entry, looked up): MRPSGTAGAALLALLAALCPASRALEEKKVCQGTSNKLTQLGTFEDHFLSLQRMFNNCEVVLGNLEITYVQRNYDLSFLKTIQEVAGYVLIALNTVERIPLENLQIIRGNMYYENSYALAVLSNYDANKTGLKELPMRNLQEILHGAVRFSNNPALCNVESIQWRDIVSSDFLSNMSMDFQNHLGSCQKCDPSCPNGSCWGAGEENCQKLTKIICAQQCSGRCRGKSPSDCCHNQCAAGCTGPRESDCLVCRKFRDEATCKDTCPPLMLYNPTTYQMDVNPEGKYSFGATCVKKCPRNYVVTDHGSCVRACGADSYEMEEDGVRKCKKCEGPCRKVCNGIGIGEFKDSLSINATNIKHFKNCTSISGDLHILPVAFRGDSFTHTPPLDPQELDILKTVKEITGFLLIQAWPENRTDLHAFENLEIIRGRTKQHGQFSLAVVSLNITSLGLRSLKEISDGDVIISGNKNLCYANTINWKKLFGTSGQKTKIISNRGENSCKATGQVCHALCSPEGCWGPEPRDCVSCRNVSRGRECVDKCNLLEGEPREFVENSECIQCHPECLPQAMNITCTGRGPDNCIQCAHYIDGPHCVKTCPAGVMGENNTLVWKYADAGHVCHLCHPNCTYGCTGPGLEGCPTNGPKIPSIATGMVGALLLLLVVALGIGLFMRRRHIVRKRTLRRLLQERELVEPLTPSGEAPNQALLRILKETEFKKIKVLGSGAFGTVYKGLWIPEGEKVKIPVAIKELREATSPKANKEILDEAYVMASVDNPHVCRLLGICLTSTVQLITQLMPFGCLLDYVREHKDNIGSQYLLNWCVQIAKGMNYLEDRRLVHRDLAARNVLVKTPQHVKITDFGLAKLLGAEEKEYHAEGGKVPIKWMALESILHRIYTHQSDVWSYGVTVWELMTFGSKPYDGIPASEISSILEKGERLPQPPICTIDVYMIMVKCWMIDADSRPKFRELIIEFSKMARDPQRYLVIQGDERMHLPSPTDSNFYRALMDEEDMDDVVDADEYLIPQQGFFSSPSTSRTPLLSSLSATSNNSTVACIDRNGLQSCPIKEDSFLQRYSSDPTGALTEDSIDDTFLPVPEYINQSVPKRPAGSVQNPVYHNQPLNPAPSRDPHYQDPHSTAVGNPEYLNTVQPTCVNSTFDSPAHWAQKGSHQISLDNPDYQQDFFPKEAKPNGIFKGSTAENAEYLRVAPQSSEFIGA

On to `N#C/C(=C\c1csc([N+](=O)[O-])c1)C(=O)O`, for which, in test [1], the IC50 (commonly the concentration needed to halve the response being measured) is above 500 µM.

Turning to `N#C/C(=C\c1ccc([N+](=O)[O-])s1)C(N)=S`, the IC50 was found to be 82.1 µM in test [2]; 82.9 µM in test [3]; 66.9 µM in test [4]; 71.6 µM in test [5]; 37.5 µM in test [1].

As for `CCCCOC(=O)/C(C#N)=C/c1csc([N+](=O)[O-])c1`, the IC50 in test [1] is above 500 µM.

Turning to `CC(C)(C)OC(=O)/C(C#N)=C/c1csc([N+](=O)[O-])c1`, in test [1], the IC50 is 150 µM.

`CCOC(=O)/C(C#N)=C/c1csc([N+](=O)[O-])c1`: the IC50 in test [2] is above 100 µM; in test [3], above 100 µM; in test [4], above 100 µM; in test [5], above 100 µM; in test [1] it was 9 µM.

On to `N#C/C(=C\c1ccsc1[N+](=O)[O-])C(N)=S`, for which the IC50 was found to be 0.35 µM in test [2]; 0.32 µM in test [3]; 0.27 µM in test [4]; 0.11 µM in test [5]; 22.6 µM in test [1].

`COC(=O)/C(C#N)=C/c1csc([N+](=O)[O-])c1` returned a 50% inhibitory concentration (IC50) in test [1] above 500 µM.

Molecule `CC(C)(C)OC(=O)/C(C#N)=C/c1ccsc1[N+](=O)[O-]` gave an IC50 in test [1] of 9 µM.

As for `N#C/C(=C\c1cc([N+](=O)[O-])cs1)C(N)=O`, the IC50 in test [1] is 47 µM.

`N#C/C(=C\c1ccsc1[N+](=O)[O-])C(N)=O` registered an IC50 in test [1] of 400 µM.

As to `N#C/C(=C\c1ccc([N+](=O)[O-])s1)C(=O)O`, the IC50 in test [1] is 150 µM and > 500 µM.

For the molecule `COC(=O)/C(C#N)=C/c1cc([N+](=O)[O-])cs1`, in test [1], the IC50 worked out at 18 µM.

`N#CC(C#N)=C(N)/C(C#N)=C/c1cc([N+](=O)[O-])cs1`: in test [1], the IC50 came to 160 µM.

`CCCCOC(=O)/C(C#N)=C/c1ccsc1[N+](=O)[O-]`: the IC50 in test [1] was above 500 µM.

In the case of `COC(=O)/C(C#N)=C/c1ccc([N+](=O)[O-])s1`, the IC50 in test [1] is above 500 µM.

In test [1], `N#C/C(=C\c1ccc([N+](=O)[O-])s1)C(N)=O` had an IC50 above 500 µM.

On to `N#CC(C#N)=C(N)/C(C#N)=C/c1csc([N+](=O)[O-])c1`, for which the IC50 in test [2] is above 100 µM; in test [3], above 100 µM; in test [4], above 100 µM; in test [5] it was above 100 µM; in test [1] it was 7 µM.

In test [1], `CCCCOC(=O)/C(C#N)=C/c1cc([N+](=O)[O-])cs1` registered an IC50 above 500 µM.

For `N#CC(C#N)=Cc1ccsc1[N+](=O)[O-]`, the IC50 in test [1] is 15.3 µM.

Consider `N#CC(C#N)=Cc1cc([N+](=O)[O-])cs1`, for which the IC50 in test [1] is 2 µM.

In test [1], `CCOC(=O)/C(C#N)=C/c1ccsc1[N+](=O)[O-]` yielded an IC50 of 100 µM. This IC50 is about 50-fold higher than that of the molecule before.

In turn, `N#C/C(=C\c1cc([N+](=O)[O-])cs1)C(N)=S` registered an IC50 in test [1] above 500 µM.

`N#C/C(=C\c1csc([N+](=O)[O-])c1)C(N)=S`: the IC50 in test [1] is 10.5 µM.

Consider `N#CC(C#N)=Cc1ccc([N+](=O)[O-])s1`, for which the IC50 was found to be 25.4 µM in test [2]; 25.8 µM in test [3]; 20.7 µM in test [4]; 28 µM in test [5]; 50 µM in test [1].

In test [1], `CCOC(=O)/C(C#N)=C/c1cc([N+](=O)[O-])cs1` registered an IC50 above 500 µM.

Take `CCCCOC(=O)/C(C#N)=C/c1ccc([N+](=O)[O-])s1`: the IC50 in test [1] was above 500 µM.

Take `N#CC(C#N)=C(N)/C(C#N)=C/c1ccsc1[N+](=O)[O-]`: the IC50 in test [2] turned out to be 7.8 µM; in test [3], 4.7 µM; in test [4], 5.1 µM; in test [5] it was 4.73 µM; in test [1], 14.6 µM.

On to `COC(=O)/C(C#N)=C/c1ccsc1[N+](=O)[O-]`, for which the IC50 in test [1] came to 50 µM.

For the molecule `CC(C)(C)OC(=O)/C(C#N)=C/c1ccc([N+](=O)[O-])s1`, the IC50 in test [1] was 75 µM.

`N#C/C(=C\c1csc([N+](=O)[O-])c1)C(N)=O`: in test [1], the IC50 is above 500 µM.

(Values after the Kinase Knowledgebase extract (Sharma et al. 2016).)
